Measured values reported in patent publication US7196110B2, “N-substituted tricyclic 3-aminopyrazoles as inhibitors for the treatment of cell proliferative disorders” (Janssen Phamaceutica N.V., priority 2002, dated 2007).
Like-named read-outs stand apart in the source and are kept apart here.

Columns and labels:
[1] = target: T1, PDGF-receptor beta enzyme comprising the tyrosine kinase domain (Homo sapiens, UniProt P09619); assay: Inhibition of PDGF-receptor kinase activity (cell-free, PLC1 peptide, 33P Flashplate); type: biochemical; settings: for inhibition at 10 µM: compound at 10 uM, read-out: Percent Inhibition @ 10 uM
T1 construct: from amino acid 545 to 1106 of GenBank Access NO: AAA36427
Summary of the method: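 The IC50 is the inhibitor level halving kinase activity relative to inhibitor-free wells, measured as 33P captured on a streptavidin-bound biotin-PLC1 peptide. The reaction ran 60 min at 30 °C in pH 8 Tris buffer with 1 mM DTT, 5 μM ATP and the 545–1106 kinase-domain enzyme.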

T47D (breast) = assay: Anti-cell proliferation in tumor cells (14C-thymidine incorporation), T47D; type: cell-based; settings: Homo sapiens, read-out: IC50 on cell proliferation, T47D
Description: (§1) The effect of compounds of the invention on cell proliferation in various tumor cells was tested based on incorporation of ^14C-thymidine into DNA of cells.
(§2) Similar to those described above in 3a, except that different cells, cell growth medium, and growth supplements were used. Human tumor cell lines derived from various human tissue origins (LoVo from colon, H460 from lung, T47D from breast, PC3 from prostate, A375 from melanoma, AsPC1 from pancreas) were obtained from the American Type Culture Collection (ATCC) and cultured under specified conditions required for each cell type, as provided by ATCC. Complete medium was obtained from Cellgro: Iscove's medium with 10% Fetal Bovine Serium (FBS) (Mediatech, Inc., Herndon, Va. 20171, Cat. No. 10-016-CV).
(§3) Tumor cells were seeded at approx. 3000–8000 cells per well in a volume of 100 μl of complete medium. Cells were grown for 24 hours in complete medium, and 1 μl of test compound was serially diluted in 100% DMSO and added to each well. For maximum growth control wells, only 1 μl of 100% DMSO was added. After 24 hours incubation, 20 μl of ^14C-thymidine master mix was added to each well and the ^14C-thymidine master mix was pepared according to the following regimen:
(§4) Cells were incubated for an additional 24 hours at 37° C. in medium containing test compound and ^14C-thymidine. Then, the reaction mixture was discarded and the plate was washed 2 times each with 200 μl PBS. Subsequently, each well on the plate was filled with 200 μl of PBS. The top of the plate was sealed with transparent plate sealer and white plate backing sealers were applied to the bottom of plates. The retained ^14C inside each well was measured using a Packard TopCount.
(§5) In order to test the potency of inhibition of the present compound, IC50 of an individual compound on the inhibition of tumor cell line proliferation was measured using the above procedure. As used herein, said IC50 refers to the concentration of the test compound at which the amount of tumor cell proliferation is reduced by one-half as compared to the maximum growth control wells without the compound.

[2] = system: PDGF-BB-stimulated angiogenesis; assay: Anti-angiogenesis matrigel mouse model (MM assay) supplemented with PDGF-BB, plug hemoglobin content; type: in vivo, mice (C57BL/6J); settings: mice
Source text: Angiogenesis inhibitory activity of a compound of this invention can be measured in vivo using the matrigel mouse model (MM Assay) of angiogenesis (Passaniti et al., Laboratory Investigation, 67: 519–528, 1992). The matrigel mouse assay is a well-established method to quantify angiogenesis (see e g. Capogrossi et al., Methods in Molecular Medicine, Vascular Disease: Molecular Biology and Gene Therapy Protocols, Edited by: A. H. Baker, Humana Press Inc., Totowa, N.J., 1999). The model has been characterized extensively for its relevance as a mimic of the process of angiogenesis and has been used extensively to evaluate in vivo both potential angiogenic and anti-angiogenic activity of numerous compounds/agents. […] All procedures involving animals were conducted in an animal facility fully accredited by the American Association for Assessment and Accreditation of Laboratory Animal Care (AAALAC) and in accordance with The Guide for the Care and Use of Laboratory Animals (NIH). […]
Normal male mice (C57BL/6J) were injected subcutaneously (ventrally below rib cage at abdominal midline) with 1.0 mL of chilled matrigel supplemented with a single purified pro-angiogenic growth factor (100–500 ng/mL of either rhPDGF-BB (supra), recombinant human basic fibroblast growth factor, rhFGF-basic (R&D System Cat. No 233-FB) or recombinant human vascular endothelial growth factor, rhVEGF (PanVera Cat. No R2951) and heparin (35 U/mL). Compounds are formulated as 0.1% suspensions (1 mg/mL final concentration) in 0.5% methylcellulose. Vehicle or test compounds (8–10 mice per treatment group) were administered orally by gavage beginning two hours after matrigel injections. […] Supernatants were removed and the hemoglobin concentration in the plug extract was measured spectrophotometrically using the Drabkin's assay method (Drabkin's reagent kit 525-A; SIGMA) and read on a Beckman DU 7400 Spectrophotometer. […] Group differences were analyzed statistically using the Mann-Whitney Test, with a p-value of 0.05 or less considered statistically significant. […]

c-Abl kinase = c-Abl kinase (Abelson murine leukemia virus, UniProt P00521); assay: Inhibition of c-Abl kinase activity (cell-free, Abl peptide substrate, 33P Flashplate); type: biochemical; settings: IC50 for the c-Abl kinase activity
LoVo (colon) = assay: Anti-cell proliferation in tumor cells (14C-thymidine incorporation), LoVo; type: cell-based; settings: Homo sapiens, read-out: IC50 on cell proliferation, LoVo
Description: as §1, §2, §3, §4, §5

A375 (melanoma) = assay: Anti-cell proliferation in tumor cells (14C-thymidine incorporation), A375; type: cell-based; settings: Homo sapiens, A-375; read-out: IC50 on cell proliferation, A375
Description: as §1, §2, §3, §4, §5

AsPC1 (pancreas) = assay: Anti-cell proliferation in tumor cells (14C-thymidine incorporation), AsPC1; type: cell-based; settings: Homo sapiens, ASPC1; read-out: IC50 on cell proliferation, AsPC1
Description: as §1, §2, §3, §4, §5

PC3 (prostate) = assay: Anti-cell proliferation in tumor cells (14C-thymidine incorporation), PC3; type: cell-based; settings: Homo sapiens, PC-3; read-out: IC50 on cell proliferation, PC3
Description: as §1, §2, §3, §4, §5

H460 (lung) = assay: Anti-cell proliferation in tumor cells (14C-thymidine incorporation), H460; type: cell-based; settings: Homo sapiens, NCI-H460; read-out: IC50 on cell proliferation, H460
Description: as §1, §2, §3, §4, §5

[3] = Rat pharmacokinetics study of pro-drugs, conversion to parent monitored by HPLC/MS/MS; type: in vivo; settings: po, rat plasma, 10 mg/kg orally, read-out: Fast PK (0.5 h) conc. Prodrug
Description: Furthermore, pro-drugs have been administered orally to rats (10 mg/kg) in pharmacokinetics studies, and the conversion of pro-drugs to the parent compound was montitored by HPLC/MS/MS analyses. Parent compound or the glucuronide conjugates of the parent compound was detected in the rat plasma from the pharmacokinetics studies (Table G).

[4] = PDGF-R kinase activity, read-out: IC50

T1 sequence (P09619 545-1106): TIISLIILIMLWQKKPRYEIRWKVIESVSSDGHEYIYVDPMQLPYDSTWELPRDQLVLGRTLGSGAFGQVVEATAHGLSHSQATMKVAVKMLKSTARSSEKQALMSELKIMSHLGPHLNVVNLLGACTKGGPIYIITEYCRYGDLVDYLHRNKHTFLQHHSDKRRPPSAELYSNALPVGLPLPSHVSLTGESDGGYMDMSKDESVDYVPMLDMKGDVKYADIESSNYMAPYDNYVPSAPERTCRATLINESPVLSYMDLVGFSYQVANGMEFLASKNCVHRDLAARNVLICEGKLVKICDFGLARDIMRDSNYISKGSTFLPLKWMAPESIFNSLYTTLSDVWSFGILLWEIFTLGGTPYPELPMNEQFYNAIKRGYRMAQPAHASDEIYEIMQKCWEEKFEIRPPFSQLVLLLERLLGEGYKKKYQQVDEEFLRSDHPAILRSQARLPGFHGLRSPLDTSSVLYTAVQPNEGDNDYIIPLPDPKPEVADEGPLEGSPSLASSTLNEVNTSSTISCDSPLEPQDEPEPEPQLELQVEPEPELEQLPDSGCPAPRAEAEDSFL
Sequence of c-Abl kinase (P00521 115-385): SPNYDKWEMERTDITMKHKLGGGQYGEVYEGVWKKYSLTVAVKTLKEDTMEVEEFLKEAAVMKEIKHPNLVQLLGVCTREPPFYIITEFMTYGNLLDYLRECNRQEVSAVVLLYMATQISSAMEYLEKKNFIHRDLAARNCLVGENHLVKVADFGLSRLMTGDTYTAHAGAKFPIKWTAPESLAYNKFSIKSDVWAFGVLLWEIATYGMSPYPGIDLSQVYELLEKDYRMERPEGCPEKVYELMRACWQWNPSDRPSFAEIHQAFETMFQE

Row | SMILES | inhibition at 10 µM ([1]; PDGF-R kinase activity) [%] | IC50 (T47D (breast)) [nM] | IC50 [1, 4] [µM] | % Inhibition @ 30 mg/kg po (angiogenesis, MM assay supplemented with PDGF-BB) [2] [%] | IC50 (c-Abl kinase) [nM] | IC50 (LoVo (colon)) [nM] | IC50 (A375 (melanoma)) [nM] | IC50 (AsPC1 (pancreas)) [nM] | IC50 (PC3 (prostate)) [nM] | IC50 (H460 (lung)) [nM] | concentration at 0.5 h [3] [nM] | IC50 ([1]; read-out: IC50 (μM) on PDGF-R kinase activity) [µM]
1 | COc1cc2c(cc1OC)-c1n[nH]c(Nc3cccc(Cl)c3)c1C2 [Compound 4, (3-Chloro-phenyl)-(6,7-dimethoxy-2,4-dihydro-indeno[1,2-c]pyrazol-3-yl)-amine] | 90 | 30 |  |  |  |  |  |  |  |  |  | 
2 | COc1cc2c(cc1OC)-c1n[nH]c(Nc3cccc(C(F)(F)F)c3)c1C2 [Compound 26, (6,7-Dimethoxy-2,4-dihydro-indeno[1,2-c]pyrazol-3-yl)-(3-trifluoromethyl-phenyl)-amine] | 92 |  | 0.037 | 42 | 134 |  |  |  |  |  |  | 
3 | COc1cc2c(cc1OC)-c1c(c(Nc3cccc(Br)c3)nn1C)C2 [Compound 91, (3-Bromo-phenyl)-(6,7-dimethoxy-1-methyl-1,4-dihydro-indeno[1,2-c]pyrazol-3-yl)-amine] | 76 |  | 2.97 |  |  | 71 | 4 |  |  |  |  | 
4 | CCOc1cccc(Nc2[nH]nc3c2Cc2cc(OCC)c(OCCCO)cc2-3)c1 [Compound 388, 3-[6-Ethoxy-3-(3-ethoxy-phenylamino)-2,4-dihydro-indeno[1,2-c]pyrazol-7-yloxy]-propan-1-ol] | 96 | 3 | 0.0367 |  | 46 | 18 | 2 | 155 | 4 | 6 |  | 
5 | CCC1c2cc(OC)c(OC)cc2-c2n[nH]c(Nc3cccc(Br)c3)c21 (centres unmarked) [Compound 420, (3-Bromo-phenyl)-(4-ethyl-6,7-dimethoxy-2,4-dihydro-indeno[1,2-c]pyrazol-3-yl)-amine] | 100 | 822 | 0.0524 |  | 335 | 3800 | 214 | 4300 | 276 | 4100 |  | 
6 | COc1cc2c(cc1OC)-c1c(c(Nc3cccc(F)c3)nn1C(=O)Oc1ccccc1)C2 [Compound 433, 3-(3-Fluoro-phenylamino)-6,7-dimethoxy-4H-indeno[1,2-c]pyrazole-1-carboxylic acid phenyl ester] | 71 |  | 0.585 |  |  |  |  |  |  |  | 60 | 
7 | COCC(=O)n1nc(Nc2cccc(F)c2)c2c1-c1cc(OC)c(OC)cc1C2 [Compound 465, 1-[3-(3-Fluoro-phenylamino)-6,7-dimethoxy-4H-indeno[1,2-c]pyrazol-1-yl]-2-methoxy-ethanone] | 96 |  | 0.00673 |  | 51 |  |  |  |  |  | 223 | 
8 | COc1cc2c(cc1OC)-c1c(c(Nc3cccc(F)c3)nn1C(=O)OCCOCCOCCO)C2 [Compound 471, 3-(3-Fluoro-phenyl-amino)-6,7-dimethoxy-4H-indeno[1,2-c]pyrazole-1-carboxylic acid 2-[2-(2-hydroxy-ethoxy)-ethoxy]-ethyl ester] | 90.5 |  | 0.135 |  |  |  |  |  |  |  | 0 | 
9 | CNC(=O)n1nc(Nc2cccc(F)c2)c2c1-c1cc(OC)c(OC)cc1C2 [Compound 578, 3-(3-Fluoro-phenylamino)-6,7-dimethoxy-4H-indeno[1,2-c]pyrazole-1-carboxylic acid methylamide] | 80 |  |  |  |  |  |  |  |  |  | 7800 | 4.02
